# Test system: HBV viral production from HepAD38 cells
# Experiment: Activity of test compounds on viral production from HepAD38 cells (viral load by qPCR of HBV core sequence in supernatant)
# Assay type: cell-based
# Details: Hepatitis B virus, 120 h, 5 days incubation, HBV DNA in supernatant by qPCR, top concentration 10 μM, read-out: Viral Load EC50 Activity range
# How it was run: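 EC50 and CC50 come from four-parameter fits of supernatant viral load and CellTiter-Glo viability, respectively. Viral load was measured by core-region TaqMan qPCR against HBV DNA standards and compared with DMSO controls. Tet-free HepAD38 cells (50,000/well, 2% FBS) were exposed to compound, highest 10 μM, for 5 days at 37° C.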
row,Compound,EC50 [µM]
1,"COC(C)(C)CCN1[C@H](C(=O)Nc2ccc(F)c(Cl)c2)C[C@H](c2nccs2)NS1(=O)=O [HBV-CSU-083-ISO-II, Cis-N-(3-Chloro-4-fluorophenyl)-2-(3-methoxy-3-methylbutyl)-5-(thiazol-2-yl)-1,2,6-thiadiazinane-3-carboxamide 1,1-dioxide]",> 5
2,"C#CCN1[C@@H](C(=O)Nc2ccc(F)c(Cl)c2)C[C@@H](c2nccs2)NS1(=O)=O [HBV-CSU-089-ISO-II, Cis-N-(3-chloro-4-fluorophenyl)-2-(prop-2-yn-1-yl)-5-(thiazol-2-yl)-1,2,6-thiadiazinane-3-carboxamide 1,1-dioxide]",> 5
3,"C#CCCN1C(C(=O)Nc2ccc(F)c(Cl)c2)CC(c2nccs2)NS1(=O)=O (stereo not drawn) [HBV-CSU-090, Cis-2-(But-3-yn-1-yl)-N-(3-chloro-4-fluorophenyl)-5-(thiazol-2-yl)-1,2,6-thiadiazinane-3-carboxamide 1,1-dioxide]",< 1
4,"C#CCCN1[C@H](C(=O)Nc2ccc(F)c(Cl)c2)C[C@H](c2nccs2)NS1(=O)=O [HBV-CSU-090-ISO-I, Cis-2-(But-3-yn-1-yl)-N-(3-chloro-4-fluorophenyl)-5-(thiazol-2-yl)-1,2,6-thiadiazinane-3-carboxamide 1,1-dioxide]",< 1
5,"C#CCCN1[C@@H](C(=O)Nc2ccc(F)c(Cl)c2)C[C@@H](c2nccs2)NS1(=O)=O [HBV-CSU-090-ISO-II, Cis-2-(But-3-yn-1-yl)-N-(3-chloro-4-fluorophenyl)-5-(thiazol-2-yl)-1,2,6-thiadiazinane-3-carboxamide 1,1-dioxide]",> 5
6,"O=C(Nc1ccc(F)c(Cl)c1)[C@@H]1C[C@H](c2nccs2)NS(=O)(=O)N1CCc1c[nH]nn1 [HBV-CSU-092-ISO-I, Cis-2-(2-(1H-1,2,3-Triazol-4-yl)ethyl)-N-(3-chloro-4-fluorophenyl)-5-(thiazol-2-yl)-1,2,6-thiadiazinane-3-carboxamide 1,1-dioxide]",< 1
7,"O=C(Nc1ccc(F)c(Cl)c1)[C@H]1C[C@@H](c2nccs2)NS(=O)(=O)N1CCc1c[nH]nn1 [HBV-CSU-092-ISO-II, Cis-2-(2-(1H-1,2,3-Triazol-4-yl)ethyl)-N-(3-chloro-4-fluorophenyl)-5-(thiazol-2-yl)-1,2,6-thiadiazinane-3-carboxamide 1,1-dioxide]",> 5
8,"N#CCN1[C@H](C(=O)Nc2ccc(F)c(Cl)c2)C[C@H](c2nccs2)NS1(=O)=O [HBV-CSU-093-ISO-I, Cis-N-(3-Chloro-4-fluorophenyl)-2-(cyanomethyl)-5-(thiazol-2-yl)-1,2,6-thiadiazinane-3-carboxamide 1,1-dioxide]",1 to 5
9,"N#CCN1[C@@H](C(=O)Nc2ccc(F)c(Cl)c2)C[C@@H](c2nccs2)NS1(=O)=O [HBV-CSU-093-ISO-II, Cis-N-(3-Chloro-4-fluorophenyl)-2-(cyanomethyl)-5-(thiazol-2-yl)-1,2,6-thiadiazinane-3-carboxamide 1,1-dioxide]",> 5
10,"C=CCN1[C@@H](C(=O)Nc2ccc(F)c(Cl)c2)C[C@@H](c2nccs2)NS1(=O)=O [HBV-CSU-094-ISO-I, Cis-2-Allyl-N-(3-chloro-4-fluorophenyl)-5-(thiazol-2-yl)-1,2,6-thiadiazinane-3-carboxamide 1,1-dioxide]",> 5
11,"C=CCN1[C@H](C(=O)Nc2ccc(F)c(Cl)c2)C[C@H](c2nccs2)NS1(=O)=O [HBV-CSU-094-ISO-II, Cis-2-Allyl-N-(3-chloro-4-fluorophenyl)-5-(thiazol-2-yl)-1,2,6-thiadiazinane-3-carboxamide 1,1-dioxide]",< 1
12,"O=C(Nc1ccc(F)c(Cl)c1)[C@@H]1C[C@H](c2nccs2)NS(=O)(=O)N1CCOCc1ccccc1 [HBV-CSU-095-ISO-II, Cis-2-(2-(benzyloxy)ethyl)-N-(3-chloro-4-fluorophenyl)-5-(thiazol-2-yl)-1,2,6-thiadiazinane-3-carboxamide 1,1-dioxide]",1 to 5
13,"O=C(Nc1ccc(F)c(Cl)c1)C1CC(c2nccs2)NS(=O)(=O)N1 (stereo not drawn) [HBV-CSU-096, Cis-N-(3-Chloro-4-fluorophenyl)-5-(thiazol-2-yl)-1,2,6-thiadiazinane-3-carboxamide 1,1-dioxide]",1 to 5
14,"O=C(Nc1ccc(F)c(Cl)c1)[C@H]1C[C@@H](c2nccs2)NS(=O)(=O)N1 [HBV-CSU-096-ISO-I, Cis-N-(3-Chloro-4-fluorophenyl)-5-(thiazol-2-yl)-1,2,6-thiadiazinane-3-carboxamide 1,1-dioxide]",> 5
15,"O=C(Nc1ccc(F)c(Cl)c1)[C@@H]1C[C@H](c2nccs2)NS(=O)(=O)N1 [HBV-CSU-096-ISO-II, Cis-N-(3-Chloro-4-fluorophenyl)-5-(thiazol-2-yl)-1,2,6-thiadiazinane-3-carboxamide 1,1-dioxide]",< 1
16,"O=C(Nc1ccc(F)c(Cl)c1)C1CC(c2nccs2)NS(=O)(=O)N1CCO (stereo not drawn) [HBV-CSU-097, Cis-N-(3-Chloro-4-fluorophenyl)-2-(2-hydroxyethyl)-5-(thiazol-2-yl)-1,2,6-thiadiazinane-3-carboxamide 1,1-dioxide]",> 5

row,Compound,EC50 [µM]
1,"O=C(Nc1ccc(F)c(Cl)c1)[C@H]1C[C@@H](c2nccs2)NS(=O)(=O)N1CCO [HBV-CSU-097-ISO-I, Cis-N-(3-Chloro-4-fluorophenyl)-2-(2-hydroxyethyl)-5-(thiazol-2-yl)-1,2,6-thiadiazinane-3-carboxamide 1,1-dioxide]",> 5
2,"CCN(CC)CCCN1[C@@H](C(=O)Nc2ccc(F)c(Cl)c2)C[C@@H](c2nccs2)NS1(=O)=O [HBV-CSU-101-ISO-I, Cis-N-(3-Chloro-4-fluorophenyl)-2-(3-(diethylamino)propyl)-5-(thiazol-2-yl)-1,2,6-thiadiazinane-3-carboxamide 1,1-dioxide]",> 5
3,"O=C(Nc1ccc(F)c(Cl)c1)C1CC(c2nccs2)NS(=O)(=O)N1CCCN1CCCC1 (stereo not drawn) [HBV-CSU-102, Cis-N-(3-Chloro-4-fluorophenyl)-2-(3-(pyrrolidin-1-yl)propyl)-5-(thiazol-2-yl)-1,2,6-thiadiazinane-3-carboxamide 1,1-dioxide]",> 5
4,"O=C(Nc1ccc(F)c(Cl)c1)[C@H]1C[C@@H](c2nccs2)NS(=O)(=O)N1CCCN1CCCC1 [HBV-CSU-102-ISO-I, Cis-N-(3-Chloro-4-fluorophenyl)-2-(3-(pyrrolidin-1-yl)propyl)-5-(thiazol-2-yl)-1,2,6-thiadiazinane-3-carboxamide 1,1-dioxide]",> 5
5,"O=C(Nc1ccc(F)c(Cl)c1)[C@@H]1C[C@H](c2nccs2)NS(=O)(=O)N1CCCN1CCCC1 [HBV-CSU-102-ISO-II, Cis-N-(3-Chloro-4-fluorophenyl)-2-(3-(pyrrolidin-1-yl)propyl)-5-(thiazol-2-yl)-1,2,6-thiadiazinane-3-carboxamide 1,1-dioxide]",> 5
6,"O=C(Nc1ccc(F)c(Cl)c1)C1CC(c2nccs2)NS(=O)(=O)N1CCCN1CCOCC1 (stereo not drawn) [HBV-CSU-103, Cis-N-(3-Chloro-4-fluorophenyl)-2-(3-morpholinopropyl)-5-(thiazol-2-yl)-1,2,6-thiadiazinane-3-carboxamide 1,1-dioxide]",> 5
7,O=C(Nc1ccc(F)c(Cl)c1)[C@@H]1C[C@H](c2nccs2)NS(=O)(=O)N1CCCN1CCOCC1 [HBV-CSU-103-ISO-II],1 to 5
8,O=C(Nc1ccc(F)c(Cl)c1)[C@H]1C[C@@H](c2nccs2)NS(=O)(=O)N1CCCN1CCOCC1 [HBV-CSU-103-ISO-I],> 5
9,"COc1ccc(CN2C(C(=O)Nc3ccc(F)c(Cl)c3)CC(c3nccs3)NS2(=O)=O)cc1 (stereo not drawn) [HBV-CSU-108, Cis-N-(3-chloro-4-fluorophenyl)-2-(4-methoxybenzyl)-5-(thiazol-2-yl)-1,2,6-thiadiazinane-3-carboxamide 1,1-dioxide]",> 5
10,"CSCCN1[C@@H](C(=O)Nc2ccc(F)c(Cl)c2)C[C@@H](c2nccs2)NS1(=O)=O [HBV-CSU-109-ISO-I, Cis-N-(3-Chloro-4-fluorophenyl)-2-(2-(methylthio)ethyl)-5-(thiazol-2-yl)-1,2,6-thiadiazinane-3-carboxamide 1,1-dioxide]",> 5
11,"CSCCN1[C@H](C(=O)Nc2ccc(F)c(Cl)c2)C[C@H](c2nccs2)NS1(=O)=O [HBV-CSU-109-ISO-II, Cis-N-(3-Chloro-4-fluorophenyl)-2-(2-(methylthio)ethyl)-5-(thiazol-2-yl)-1,2,6-thiadiazinane-3-carboxamide 1,1-dioxide]",< 1
12,"O=C(O)CN1C(C(=O)Nc2ccc(F)c(Cl)c2)CC(c2nccs2)NS1(=O)=O (stereo not drawn) [HBV-CSU-110, Cis-2-(3-((3-Chloro-4-fluorophenyl)carbamoyl)-1,1-dioxido-5-(thiazol-2-yl)-1,2,6-thiadiazinan-2-yl)acetic acid]",> 5
13,"CN1C(C(=O)Nc2ccc(F)c(Cl)c2)CC(c2ccc(F)cc2)NS1(=O)=O (stereo not drawn) [HBV-CSU-112 (Cis), Cis-N-(3-Chloro-4-fluorophenyl)-5-(4-fluorophenyl)-2-methyl-1,2,6-thiadiazinane-3-carboxamide 1,1-dioxide]",< 1
14,"CN1[C@H](C(=O)Nc2ccc(F)c(Cl)c2)C[C@H](c2ccc(F)cc2)NS1(=O)=O [HBV-CSU-112-ISO-I, Cis-N-(3-Chloro-4-fluorophenyl)-5-(4-fluorophenyl)-2-methyl-1,2,6-thiadiazinane-3-carboxamide 1,1-dioxide]",< 1
15,"CN1[C@@H](C(=O)Nc2ccc(F)c(Cl)c2)C[C@@H](c2ccc(F)cc2)NS1(=O)=O [HBV-CSU-112-ISO-II, Cis-N-(3-Chloro-4-fluorophenyl)-5-(4-fluorophenyl)-2-methyl-1,2,6-thiadiazinane-3-carboxamide 1,1-dioxide]",> 5
16,"CN1[C@H](C(=O)Nc2ccc(F)c(Cl)c2)C[C@H](c2ccccc2)NS1(=O)=O [HBV-CSU-113-ISO-I, Cis-N-(3-chloro-4-fluorophenyl)-2-methyl-5-phenyl-1,2,6-thiadiazinane-3-carboxamide 1,1-dioxide]",< 1
